Some test systems named below: MALME-3M melanoma; U251 CNS; RXF 393 renal; NCI/ADR-RES ovarian; SF-295 CNS; SF-539 CNS; LOX IMVI melanoma; UACC-62 melanoma; HS 578T breast; IGROV1 ovarian.
Assay in all cases: DTP human tumour cell line panel, 48 h

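Interpolation was linear, between the two tested concentrations surrounding the appropriate level; five concentrations were tested over 48 hours in 96-well plates. Abbreviation: GI50, concentration required for 50% inhibition of growth. At the TGI there is no net growth.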

By GI50 is commonly meant the concentration that inhibits growth by half. What is called TGI is the concentration giving total growth inhibition. Read a high TGI as less potent growth arrest. With `COc1ccc(NC(=O)COCCOCCNC[C@@H]2C(=O)O[C@H]3[C@H]2CC/C(COC(=O)OC/C2=C/CC[C@@]4(C)O[C@H]4[C@H]4OC(=O)[C@@H](CN(C)C)[C@@H]4CC2)=C\CC[C@@]2(C)O[C@@H]32)c(O)c1C(N)=O`, the GI50 with MALME-3M melanoma is 1.52 µM; in the assay with U251 CNS it was 8.87 µM; in the assay with RXF 393 renal, 1.3 µM; in the assay with NCI/ADR-RES ovarian, > 50 µM; in the assay on SF-295 CNS, > 50 µM; with SF-539 CNS, 3.42 µM. Besides, the GI50 in the assay on LOX IMVI melanoma was 5.31 µM; with UACC-62 melanoma it was 5.11 µM; in the assay with HS 578T breast, 14.7 µM; in the assay with IGROV1 ovarian, 4.68 µM. Further, the TGI was 4.12 µM with MALME-3M melanoma; 18 µM in the assay on U251 CNS; 3.59 µM with RXF 393 renal; > 50 µM in the assay with NCI/ADR-RES ovarian; > 50 µM with SF-295 CNS; 9.92 µM with SF-539 CNS. For the same compound, the TGI with LOX IMVI melanoma is 11.4 µM; in the assay on UACC-62 melanoma it was 11.4 µM; in the assay with HS 578T breast it was > 50 µM; in the assay with IGROV1 ovarian it was 11.8 µM.

For `COc1ccc(/C(=N\O)c2cc(C)c(OC)c(C)c2)cc1O`, the GI50 was < 0.01 µM in the assay on MALME-3M melanoma; < 0.01 µM in the assay with U251 CNS; < 0.01 µM in the assay with RXF 393 renal; < 0.01 µM in the assay on NCI/ADR-RES ovarian; < 0.01 µM in the assay on SF-295 CNS; 0.0189 µM in the assay with LOX IMVI melanoma. The concentration for 50% growth inhibition (GI50) in the assay on UACC-62 melanoma was < 0.01 µM; in the assay on HS 578T breast, 0.0198 µM; with IGROV1 ovarian it was 0.0134 µM. Besides, the concentration for total growth inhibition (TGI) in the assay on MALME-3M melanoma, with U251 CNS, in the assay with RXF 393 renal, in the assay with NCI/ADR-RES ovarian, in the assay on SF-295 CNS and with LOX IMVI melanoma was > 100 µM each time. Also, the total growth inhibition concentration (TGI) with UACC-62 melanoma, with HS 578T breast and with IGROV1 ovarian was > 100 µM each time.

On to `COc1cc(-n2cc(-c3ccc(Cl)cc3)nc2SCc2cccc(C#N)c2)cc(OC)c1OC`, for which the GI50 with MALME-3M melanoma is 18.9 µM; in the assay with U251 CNS, 44.1 µM; in the assay with NCI/ADR-RES ovarian it was 94.7 µM; in the assay with SF-295 CNS it was 48.1 µM; in the assay on SF-539 CNS, 15.5 µM; with LOX IMVI melanoma it was > 100 µM. Besides, the GI50 was 21.9 µM in the assay on UACC-62 melanoma, 34.2 µM with HS 578T breast and 54.9 µM with IGROV1 ovarian. Moreover, the TGI in the assay on MALME-3M melanoma is 60.2 µM; with U251 CNS, > 100 µM; in the assay on NCI/ADR-RES ovarian, > 100 µM; in the assay with SF-295 CNS, > 100 µM; with SF-539 CNS, 48.1 µM; with LOX IMVI melanoma it was > 100 µM. For the same compound, the TGI in the assay on UACC-62 melanoma, in the assay on HS 578T breast and in the assay with IGROV1 ovarian was > 100 µM each time.

With `Cc1cc(Cc2cc(C)cc(C(C)(C)C)c2O)c(O)c(Cc2cc(C)cc(C(C)(C)C)c2O)c1`, the TGI with MALME-3M melanoma worked out at 5.13 µM; with U251 CNS, 10.3 µM; in the assay on RXF 393 renal it was 8.21 µM; in the assay with NCI/ADR-RES ovarian, 12.6 µM; in the assay with SF-295 CNS, 10.1 µM; in the assay with SF-539 CNS, 6.54 µM. For the same compound, the TGI in the assay with LOX IMVI melanoma stood at 10.9 µM; in the assay with UACC-62 melanoma it was 4.53 µM; in the assay on HS 578T breast, 5.93 µM; with IGROV1 ovarian it was 14 µM.

As to `FC(F)(F)c1ccc(C#Cc2ccccc2C#Cc2ccccc2)cc1`, the GI50 in the assay on MALME-3M melanoma is 36.3 µM; in the assay with U251 CNS, 27.6 µM; with RXF 393 renal, 23.4 µM; in the assay on NCI/ADR-RES ovarian, 62.8 µM; with SF-295 CNS, 30.3 µM; with SF-539 CNS, 41.4 µM. Moreover, the GI50 is 26.2 µM in the assay on LOX IMVI melanoma, 92.9 µM in the assay with UACC-62 melanoma and > 100 µM in the assay on IGROV1 ovarian. For the same compound, the TGI with MALME-3M melanoma is > 100 µM; in the assay on U251 CNS, 81.2 µM; with RXF 393 renal it was 65.6 µM; in the assay with NCI/ADR-RES ovarian it was > 100 µM; in the assay with SF-295 CNS, > 100 µM; in the assay on SF-539 CNS it was > 100 µM. Also, the TGI is 55.3 µM with LOX IMVI melanoma, > 100 µM in the assay with UACC-62 melanoma and > 100 µM with IGROV1 ovarian.

As to `CN1CC[C@]2(C)c3cc(O)ccc3CC3CCCC1C32C` (stereo not given in full), the total growth inhibition concentration (TGI) in the assay with MALME-3M melanoma, in the assay with U251 CNS, in the assay with RXF 393 renal, in the assay with SF-295 CNS, with SF-539 CNS and in the assay with LOX IMVI melanoma was > 100 µM each time. Also, the TGI with UACC-62 melanoma and with IGROV1 ovarian was > 100 µM in each case.

As to `C=C1C(=O)OC2C=C(CCC(C)=O)C(C)C(OC(C)=O)CC12` (stereo not given), the TGI in the assay with MALME-3M melanoma turned out to be 25.2 µM; in the assay on U251 CNS, 31.1 µM; in the assay with RXF 393 renal it was 5.42 µM; in the assay with SF-295 CNS, 40.2 µM; with SF-539 CNS, 28.5 µM; with LOX IMVI melanoma it was 3.34 µM. For the same compound, the TGI amounted to 27.4 µM with UACC-62 melanoma and 43.9 µM in the assay on IGROV1 ovarian.

For the compound `Nc1c([N+](=O)[O-])cc2c3c(cccc13)CC2`, the concentration for total growth inhibition (TGI) was > 100 µM in the assay with U251 CNS; 74.2 µM in the assay on RXF 393 renal; > 100 µM in the assay on NCI/ADR-RES ovarian; > 100 µM in the assay on SF-295 CNS; > 100 µM in the assay on SF-539 CNS; > 100 µM in the assay on LOX IMVI melanoma. Besides, the total growth inhibition concentration (TGI) with UACC-62 melanoma, in the assay with HS 578T breast and with IGROV1 ovarian was > 100 µM each time.

In the case of `O=C(c1ccccc1)C(Br)C(Br)c1cccc([N+](=O)[O-])c1` (stereo not given), the GI50 was 2 µM in the assay with MALME-3M melanoma; 1.56 µM with U251 CNS; 1.59 µM in the assay with RXF 393 renal; 2.88 µM in the assay on NCI/ADR-RES ovarian; 10.8 µM in the assay on SF-295 CNS; 2.32 µM in the assay with SF-539 CNS. The GI50 is 1.36 µM with LOX IMVI melanoma, 1.79 µM in the assay with UACC-62 melanoma and 2.75 µM in the assay on IGROV1 ovarian. The TGI in the assay on MALME-3M melanoma was 3.84 µM; in the assay on U251 CNS, 3.02 µM; with RXF 393 renal, 2.94 µM; in the assay on NCI/ADR-RES ovarian it was 8.82 µM; in the assay with SF-295 CNS, 24 µM; in the assay on SF-539 CNS, 5.05 µM. The concentration for total growth inhibition (TGI) in the assay on LOX IMVI melanoma was determined as 2.77 µM; with UACC-62 melanoma, 3.56 µM; in the assay with IGROV1 ovarian it was 7.5 µM.

Turning to `O=C(O)CNS(=O)(=O)c1ccc(NC(=O)CI)cc1`, the TGI in the assay on MALME-3M melanoma came out at 39.6 µM; in the assay with U251 CNS, 35 µM; with RXF 393 renal, 31.1 µM; in the assay on SF-295 CNS, 68.5 µM; with SF-539 CNS, 30 µM; with LOX IMVI melanoma, 37.6 µM. In addition, the concentration for total growth inhibition (TGI) is 66.8 µM with UACC-62 melanoma and > 100 µM in the assay on IGROV1 ovarian.
